Assay: acid dissociation constant pKa determined by computation (ACD/Labs Software Package 1; Gaussian 16 DFT where not calculable)
Settings: acid generated from photoacid generator B
Text: In the present specification, an acid dissociation constant (pKa) represents a pKa in an aqueous solution, and is specifically a value determined by computation from a value based on a Hammett's substituent constant and database of publicly known literature values, using the following software package 1. Any of the pKa values described in the present specification indicates values determined by computation using the software package.
Software Package 1: Advanced Chemistry Development (ACD/Labs) Software V 8.14 for Solaris (1994-2007 ACD/Labs).
As described above, the pKa in the present specification refers to a value determined by computation from a value based on a Hammett's substituent constant and database of publicly known literature values, using the software package 1, but in a case where the pKa cannot be calculated by the method, a value obtained by Gaussian 16 based on density functional theory (DFT) shall be adopted.
In addition, the pKa in the present specification refers to a “pKa in an aqueous solution” as described above, but in a case where the pKa in an aqueous solution cannot be calculated, a “pKa in a dimethyl sulfoxide (DMSO) solution” shall be adopted.
Furthermore, in the measurement of the acid dissociation constant pKa of an acid generated from the photoacid generator B, specifically, the pKa is a value determined by subjecting a compound formed by substituting each cationic moiety in the compounds B-1 to B-25 with H^+ (for example, in a case of the compound B-1, a compound formed by substituting the triphenylsulfonium cation with H^+) to computation from a value based on a Hammett's substituent constant and database of publicly known literature values, using Software Package 1 of ACD/Labs, as described above. In addition, in a case where pKa could not be calculated by the method, a value obtained by Gaussian 16 based on density functional theory (DFT) was adopted.
In the following table, “pKa1” represents an acid dissociation constant of the first stage, “pKa2” represents an acid dissociation constant of the second stage, and “pKa3” represents an acid dissociation constant of the third stage. A smaller value of pKa means a higher acidity. […]

Row | SMILES | Difference between acid dissociation constant a1 and acid dissociation constant a2
1 | O=C(COC(=O)C(F)(F)S(=O)(=O)O)NC(=O)C(F)(F)F [B-4] | 9.23
2 | O=C(O)C1CCCCC1C(=O)OCC(F)C(F)(F)S(=O)(=O)O (centres unmarked) [B-17] | 7.24
3 | O=C(NS(=O)(=O)C(F)(F)C(F)(F)C(F)(F)S(=O)(=O)NS(=O)(=O)C(F)(F)F)c1cc(C(F)(F)F)cc(C(F)(F)F)c1 [B-24] | 9.95
4 | O=C(CC(F)(F)F)NS(=O)(=O)C(F)(F)C(F)(F)C(F)(F)S(=O)(=O)NS(=O)(=O)C(F)(F)F [B-22] | 10.35
5 | CC1(C)C2CCC1(CS(=O)(=O)NC(=O)C(F)(F)C(F)(F)C(F)(F)F)C(OC(=O)C(F)S(=O)(=O)O)C2 (centres unmarked) [B-8] | 2.20
6 | O=C(O)N1CCN(S(=O)(=O)C(F)(F)C(F)(F)C(F)(F)S(=O)(=O)NS(=O)(=O)C(F)(F)F)CC1 [B-13] | 15.11
7 | CS(=O)(=O)NC(=O)C(F)(F)C(F)(F)C(F)(F)C(=O)OCC(F)S(=O)(=O)O (centres unmarked) [B-5] | 2.55
8 | O=S(=O)(O)NCCOC1CCCC(C(F)(F)S(=O)(=O)O)C1 (centres unmarked) [B-18] | 3.2
9 | O=C(OCCCS(=O)(=O)O)C(F)(F)S(=O)(=O)O [B-6] | 4.82
10 | O=C(O)CCCOC(=O)C(CS(=O)(=O)O)C(F)(F)F (centres unmarked) [B-14] | 3.63
11 | O=C(O)C(F)(F)C(F)(F)C(F)(F)C(=O)OC12CC3CC(CC(COC(=O)C(F)(F)S(=O)(=O)O)(C3)C1)C2 [B-3] | 2.92

— patent US20210294217A1, “ACTINIC RAY-SENSITIVE OR RADIATION-SENSITIVE RESIN COMPOSITION, RESIST FILM, PATTERN FORMING METHOD, AND METHOD FOR MANUFACTURING ELECTRONIC DEVICE” (FUJIFILM Corporation, priority 2019, published 2021)
